A short description of the assay: Displacement of [3H]clonidine from imidazoline receptor I-1 of bovine chromaffin cell membranes.

Here are results for six molecules from BindingDB's records for doi:10.1021/jm001111b (Louis Pasteur University, 2001).

`C1COC(NC(C2CC2)C2CC2)=N1` [CHEBI:8862] returned a Ki of 74 nM.

In the case of `C1CN=C(NC(C2CC2)C2CC2)C1`, the Ki worked out at 513 nM. The molecule `CC1CN=C(NC(C2CC2)C2CC2)C1` (stereo unspecified) came in with a Ki of 646 nM. Under `CC1CC(NC(C2CC2)C2CC2)=NC1C` (stereo unspecified) stands 537 nM; under `CCC1CCC(NC(C2CC2)C2CC2)=N1` (stereo unspecified), 170 nM; under `CC1CCC(NC(C2CC2)C2CC2)=N1` (stereo unspecified), 1580 nM.
